Columns and labels:
[1] = tested on: Jak2 and STAT5 phosphorylation in UT7 cells; assay: Jak2 and STAT5 phosphorylation in UT7 cells with JAK or Src kinase inhibitors (Western); format: cell-based
Experimental: 10×10^7 UT7 cells were serum starved then treated with SKI 606 or AG490 for 30 minutes, CC5013 for 2 hours, and stimulated with EPO (1 U/ml) for 10 minutes at 37° C. Cells were lysed and […] run on a 4-15% Gradient gel (Bio-rad). Antibodies included p-STAT5 (Upstate, 1:1000 in 5% TBS/milk), total STAT5 (Cell Signaling, 1:10000 in 5% TBS/milk), and p-Jak2 (Santa Cruz, 1:500 in 5% TBS/milk). Blots were developed with an ECL detection kit (Amersham).
To further evaluate the mechanism by which lenalidomide enhances the EPO-R signal, STAT5 activation was assessed in response to EPO+lenalidomide treatment using selective pharmacologic inhibitors of JAK (AG490) or Src ([…]) kinases [FIG. 4].

[2] = tested on: MDS patients without 5q deletions; details: cited from earlier work
[3] = tested on: AML-EH5q cells; assay: Apoptosis by Annexin-V/PI flow cytometry in AML-EH5q cells; format: cell-based; details: AML-EH5q (5q-deleted) cells, 24 hours
Experimental: (§1) AML-EH5q (FIG. 8A) and U937 (FIG. 8B) cells were exposed to lenalidomide, thalidomide or vehicle at the concentrations indicated for 24 hours in IMDM and 20% FBS and apoptosis assessed by flow cytometry using Annexin-V/PI staining. Briefly, cells are incubated for 20 minutes at room temperature in 50 mM HEPES (pH 7.4) and 150 mM NaCl containing 2 mM calcium chloride with a mixture of 1 μg/mLAnnexin V-FITC (Boehringer Mannhein, Mannhein, Germany) and 2.5 μg/mL propidium iodide (PI; Sigma-Aldrich) before analysis.
(§2) The hematologic effects of lenalidomide could derive from dual effects that are karyotype-dependent, i.e., (1) the potentiation of erythropoiesis in non-del5q erythroid precursors, and (2) selective suppression of del5q clones. To confirm that lenalidomide is selectively cytotoxic to del-5q clones, an AML cell line transformed from an MDS patient with isolated 5q31 deletion was cultivated and the cell line successfully maintained in suspension culture with recombinant myeloid growth factor supplementation. This cell line [designated AML-EH5q] is an AML cell line that harbors the isolated 5q-deletion. […] To evaluate the selectivity of lenalidomide cytotoxic for del5q clones, apoptotic response to lenalidomide and thalidomide was compared in AML-EH5q and U937 (non-del5q) cells by flow cytometry. […] Viability was unaffected at all concentrations for both agents in U937 cells.

[4] = tested on: U937 (non-del5q) cells; assay: Apoptosis by Annexin-V/PI flow cytometry in U937 cells; format: cell-based; details: 24 hours, all concentrations
Experimental: as §1, §2

[5] = target: T1, rhu-CDC25C (Homo sapiens, UniProt P30307); assay: CDC25C phosphatase OMFP hydrolysis assay; format: biochemical
T1 construct: purchased BIOMOL
T1 sequence (P30307 1-473): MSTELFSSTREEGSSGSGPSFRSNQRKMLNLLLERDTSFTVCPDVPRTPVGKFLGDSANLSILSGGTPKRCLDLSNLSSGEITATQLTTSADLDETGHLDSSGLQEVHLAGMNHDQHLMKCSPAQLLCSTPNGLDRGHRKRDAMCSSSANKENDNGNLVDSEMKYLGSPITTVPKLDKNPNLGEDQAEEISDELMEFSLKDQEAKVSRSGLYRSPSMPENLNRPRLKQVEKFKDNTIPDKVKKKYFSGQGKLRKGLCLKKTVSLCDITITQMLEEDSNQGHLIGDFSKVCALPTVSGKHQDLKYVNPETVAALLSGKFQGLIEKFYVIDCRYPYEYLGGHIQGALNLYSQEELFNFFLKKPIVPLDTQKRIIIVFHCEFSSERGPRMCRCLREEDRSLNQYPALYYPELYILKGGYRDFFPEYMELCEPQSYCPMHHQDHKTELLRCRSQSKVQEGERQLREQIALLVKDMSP
Experimental: 200 U of rhu-CDC25C (BIOMOL) was incubated in assay buffer (100 mM Tris-HCL, pH 8.2, 40 mM NaCl, 1 mM DTT, 0.1% BSA, and 20% glycerol) for 1 hour at 37 C with the indicated inhibitors CC-5013, Thalidomide, and CDC25 Phosphatase Inhibitor, NSC, Calbiochem) at the concentrations indicated. The substrate OMFP (3-0-Methylfluorescein phosphate cyclohexylammonium salt, Sigma) was added at 500 μM and tubes were incubated for 60 minutes at 37° C. Samples were read on a spectrophotometer at 477 nm. Percent activity was calculated by subtracting background absorbance and dividing each sample by the CDC25C+control.
To determine if lenalidomide inhibits CDC25C phosphatase activity, rhu-CDC25C PTP inhibition by lenalidomide and thalidomide were compared to a CDC25C selective inhibitor using the 3-o-methylfluorescein phosphate (OMFP) hydrolysis assay [FIG. 10].

Nc1cccc2c1CN(C1CCC(=O)NC1=O)C2=O (stereo not shown) [lenalidomide, 3-(4-amino-1-oxo-1,3-dihydro-2H-isoindol-2-yl)piperidine-2,6-dione]
EPO-induced Jak2-phosphorylation ([1]; lenalidomide + EPO (Lane 7)): further augmented
Jak2-phosphorylation ([1]; lenalidomide alone (Lane 2)): increased
patients who benefit from lenalidomide therapy [2]: Approximately 25%
induction of programmed cell death (apoptosis) [3]: concentration dependent induction of programmed cell death
induction of programmed cell death (apoptosis) ([3]; listed as Lenalidomide): selectively induced cell death
viability / apoptosis [4]: unaffected
inhibition of CDC25C phosphatase activity [5]: potent and selective inhibitor

From patent publication US20220040263A1, “COMPANION DIAGNOSTIC FOR COMBINATION LENALIDOMIDE AND ERYTHROPOIETIN TREATMENT” (H. Lee Moffitt Cancer Center and Research Institute, Inc., priority 2016, published 2022)
